Read-outs that look alike come from different tables or passages of the source.
Experiments:
Solubility = format: physicochemical
[1] = tested on: isolated small intestine (ileum) of guinea pigs; test: Spasmolytic activity in vitro on the isolated small intestine (ileum) of guinea pigs, barium chloride as agonist; details: 10^-6 g/cc; for % inhibition: incubation 1 minute, BaCl2 2.10^-6 g/cc
Method: The tests are carried out in vitro utilizing the isolated small intestine of guinea pigs. As agonist, there is used barium chloride in the dose of 2.10^-6 g/cc. The substance AF 544 and papaverine, which is a substance having well-known spasmolytic activity, are tested in the same concentration of 10^-6 g/cc.

[2] = tested on: lower limb of rats (vascular zone); test: Vasodilator activity, perfusion of the lower limb of rats (Foster et al.); details: for inhibition at 50 µg/mL: read-out: Decrease in pressure, %
From the text: (Foster et al., J.Pharmacol.Exp.Ther. 89,256,1947)
This study has been carried out in rats by perfusion of the lower limb while determining the variation of the resistance offered by the vascular zone after the perfusion by means of a suitable pressure transducer.
The vaso-constricting agent used is a solution containing a high content of potassium, together with papaverine, the latter being used for comparison purposes.

[3] = tested on: rats having normal blood pressure; test: Hypotensive activity in rats having normal blood pressure; format: in vivo; details: for Time of maximum hypotensive effect: i.p., rats with normal blood pressure
Method: The product has been administered by the intraperitoneal route to rats having normal blood pressure in the dose of 10 and 25 mg/kg. The systolic pressure of the animals has been measured 1, 4, and 24 hours respectively after the treatment using hydralazine in the dose of 1 mg/kg intraperitoneally for comparison. […] When the substance is administered in the dose of 25 mg/kg, the decrease in the systolic pressure is 2.5 times the decrease caused by hydralazine administered in the dose of 1 mg/kg.

angiotensin = test: Hematic angiotensin in rats with tied abdominal aorta; format: in vivo; details: 20 and 40 mg/kg oral, after 30 minutes
Method: (§1) In a second experiment, the substance AF 544 has been administered to rats which have been treated to cause an increase in blood pressure, specifically by tying the abdominal aorta. The administration has been carried out by the oral route in the dose of 20 and 40 mg/kg respectively. Measurements of diastolic pressure, systolic pressure and average pressure are made after 1, 15, and 30 minutes. After 30 minutes, for each group, determinations are made of the hematic renin and the hematic angiotensin. The dose of 20 mg/kg is found to reduce the diastolic pressure of 10-15% while the systolic pressure and the average pressure remain unchanged. On the other hand, the dose of 40 mg/kg is found to be effective on all three parameters, causing an average reduction of about 25%.

renin = test: Hematic renin in rats with tied abdominal aorta; format: in vivo; details: 20 and 40 mg/kg oral, after 30 minutes
Method: as §1

[4] = tested on: rats having genetically high blood pressure; test: Antihypertensive activity in rats having genetically high blood pressure; format: in vivo; details: 25 mg/kg orally
Method: There are utilized for this test rats having genetically high blood pressure. The rats are treated for three days with AF 544 in the dose of 25 mg/kg orally. After each treatment and specifically after 1, 4, 8 and 24 hours respectively, the systolic pressure of the animals is measured.

[5] = tested on: rats treated to cause an increase in blood pressure by tying the abdominal aorta; test: Antihypertensive activity in rats with tied abdominal aorta, blood pressure; format: in vivo
Method: as §1

[6] = Acute toxicity (DL50) in mice; details: mouse, in vivo
From the text: The DL50 has been determined in mice by the oral as well as intraperitoneal route.

anaesthesized cats = test: Effect on the circulation and on breathing of anaesthetized cats; format: in vivo
Method: For this test, six cats of both sexes are used. The animals had been brought to a state of anaesthesia by means of urethane. The substance AF 544 is administered by the endovenous route in the dose of 0.1-1 mg/kg. The following parameters have been studied: average arterial pressure, amplitude and respiratory frequency, effect on pressure responses to various agonists, (acetylcholine, adrenaline, occlusion of the carotid artery, and vagal stimulation).

[7] = perfused rat lower limb, dose 5.10^-5 g/cc, high-potassium vasoconstriction

## CC(=N)Nc1c(Cl)cccc1Cl
Solubility; in water
  Solubility in water: soluble in water

## COc1ccc(Cc2nccc3cc(OC)c(OC)cc23)cc1OC [PAPAVERINE, papaverine, reference compound]
[1]
  % inhibition: 73.7 ± 8.09%
[2]; Rattus norvegicus
  inhibition at 50 µg/mL: 39.3%
[2]; [7]
  Decrease in pressure, mm Hg ± e.s: 82 ± 13.6 mm Hg

## NNc1nncc2ccccc12 [HYDRALAZINE, hydralazine, reference compound]
[3]; 1 mg/kg i.p., 1 hour
  Percentage variation of systolic pressure with respect to the basal values: +21.0 ± 4.9%
[3]; 1 mg/kg i.p., 4 hours
  Percentage variation of systolic pressure with respect to the basal values: -18.0 ± 3.1%
[3]; 1 mg/kg i.p., 24 hours
  Percentage variation of systolic pressure with respect to the basal values: -7.5 ± 7.8%
[3]
  Time of maximum hypotensive effect: reaches the maximum even during the first hour

## CC(=N)Nc1c(Cl)cccc1Cl [AF 544, N-(2,6-dichlorophenyl)acetamidine]
angiotensin
  Quantity of angiotensin: an increase in the quantity of angiotensin occurs, which is inversely proportional to the dose of AF 544
[3]; 10 mg/kg i.p., 1 hour
  Percentage variation of systolic pressure with respect to the basal values: -1.5 ± 1.8%
[3]; 10 mg/kg i.p., 4 hours
  Percentage variation of systolic pressure with respect to the basal values: -13.1 ± 6.8%
[3]; 25 mg/kg i.p., 1 hour
  Percentage variation of systolic pressure with respect to the basal values: -6.6 ± 13.4%
[3]; 25 mg/kg i.p., 4 hours
  Percentage variation of systolic pressure with respect to the basal values: -46.2 ± 3.4%
[3]; 25 mg/kg i.p., 24 hours
  Percentage variation of systolic pressure with respect to the basal values: -2.2 ± 2.8%
[3]; 10 and 25 mg/kg i.p.
  Dose dependence of hypotensive activity: depends on the dose
[3]; AF 544 25 mg/kg i.p. vs hydralazine 1 mg/kg i.p.
  Decrease in systolic pressure relative to the decrease caused by hydralazine: 2.5 times
[3]
  Time of maximum hypotensive effect: reaches the maximum effect during the fourth hour
renin
  Activity of renin: increases in proportion to the dose of AF 544
[4]
  Time of maximum decrease of pressure: between the fourth and eighth hour
[4]; day 1, 1 hour
  Percentage variation of (systolic) pressure with respect to the basal values of the first day: -5%
[4]; day 1, 4 hours
  Percentage variation of (systolic) pressure with respect to the basal values of the first day: -20%
[4]; day 1, 8 hours
  Percentage variation of (systolic) pressure with respect to the basal values of the first day: -18%
[4]; day 1, 24 hours
  Percentage variation of (systolic) pressure with respect to the basal values of the first day: -19%
[4]; day 2, 1 hour
  Percentage variation of (systolic) pressure with respect to the basal values of the first day: -26%
[4]; day 2, 4 hours
  Percentage variation of (systolic) pressure with respect to the basal values of the first day: -20%
[4]; day 2, 8 hours
  Percentage variation of (systolic) pressure with respect to the basal values of the first day: -27%
[4]; day 2, 24 hours
  Percentage variation of (systolic) pressure with respect to the basal values of the first day: -28%
[4]; day 3, 1 hour
  Percentage variation of (systolic) pressure with respect to the basal values of the first day: -22%
[4]; day 3, 4 hours
  Percentage variation of (systolic) pressure with respect to the basal values of the first day: -11%
[4]; day 3, 8 hours
  Percentage variation of (systolic) pressure with respect to the basal values of the first day: -15%
[4]; day 3, 24 hours
  Percentage variation of (systolic) pressure with respect to the basal values of the first day: -12%
[4]; relative to the maximum at 4-8 hours
  Decrease of pressure at the twenty-fourth hour (in words): remaining about the same during the twenty-fourth hour
[5]; 20 mg/kg oral
  Effect on average pressure: unchanged
  Effect on systolic pressure: unchanged
  Reduction of diastolic pressure: 10-15%
[5]; 40 mg/kg oral
  Average reduction of all three parameters (diastolic, systolic and average pressure): about 25%
Solubility; by heating, common organic solvents
  Solubility in common organic solvents: soluble by heating in common organic solvents
[1]; efficacy compared with papaverine in the same concentration
  Spasmolytic activity (in words): high spasmolytic activity with an efficacy which is statistically analogous to that of papaverine in the same concentration
[1]
  % inhibition: 49.8 ± 7.44%
[2]; compared with papaverine at equal dose
  Vasodilator activity (in words): substantial vasodilator activity, which is only slightly inferior to that of papaverine at equal dose
[2]; [7]
  Decrease in pressure, mm Hg ± e.s: 60 ± 3.2 mm Hg
  inhibition at 50 µg/mL: 27.5%
[6]; ip
  LD50: 170 mg/kg
[6]; po, orally
  LD50: 420 mg/kg
Anaesthesized cats; 0.1 mg/kg i.v.
  Effect in % on pressure response to acetylcholine: +5.0%
  Effect in % on pressure response to adrenaline: -25.6%
  Effect in % on pressure response to carotid occlusion: +3.5%
  Effect in % on pressure response to vagal stimulation: +11.5%
  Effect on arterial pressure, %: -13.9%
  Effect on arterial pressure, mm Hg ± e.s: -12.5 mm Hg
  Respiration, amplitude %: +50.9%
  Respiration, frequency %: +31.4%
Anaesthesized cats; 0.1 mg/kg intravenously
  Transitory hypotension: 13.9%
Anaesthesized cats; 1 mg/kg i.v.
  Effect in % on pressure response to acetylcholine: +4.5%
  Effect in % on pressure response to adrenaline: +4.0%
  Effect in % on pressure response to carotid occlusion: +2.5%
  Effect in % on pressure response to vagal stimulation: +20.4%
  Effect on arterial pressure, %: -46.0%
  Effect on arterial pressure, mm Hg ± e.s: -36.7 mm Hg
  Respiration, amplitude %: +16.1%
  Respiration, frequency %: -8.5%
Anaesthesized cats; 1 mg/kg intravenously
  Transitory hypotension: 46.0%
Anaesthesized cats; 0.1-1 mg/kg i.v., respiration, responses to agonists
  Variations of the other parameters observed (in words): small and statistically they are not significant

Source: patent US4503076A, “Vasodilator compound and pharmaceutical compositions therefrom” (Ausonia Farmaceutic s.r.l., priority 1981, dated 1985)
